Non-standard residues stand in square brackets, D forms with d.
Key:
Type in all cases: in vivo, female C57BL/6 mice
[1] = test system: mouse model of scopolamine-induced dry eye; assay: Histopathology of the right eye (cornea) at necropsy Day 22 in scopolamine-induced dry eye mice
Protocol: The study consisted of a total of 5 groups of female C57BL/6 mice, comprising 4 groups of 12 mice each and an additional group of 4 mice. Bilateral short-term dry eye was induced by a combination of scopolamine hydrobromide (Sigma-Aldrich Corp., St. Louis, Mo.) injection (subcutaneous (SC), four times daily, 0.5 mg/dose, Days 0-21) and by exposing mice to the drying environment of constant air draft. Starting on Day 1, mice of Groups 1-4 were treated three times daily (TID) for 21 days with bilateral topical ocular (oculus uterque; OU) administration (5 μL/eye/dose) of vehicle (0.9% sterile saline; negative control article); or the peptide of SEQ ID NO: 11 (0.06%, 0.25% and 0.6%). […] During the in-life (treatment) period, clinical observations were recorded once daily; slit-lamp examination (SLE) with corneal fluorescein staining, tear break-up time test (TBUT), and phenol red thread test (PRTT) were performed three times per week. […] Tissues from the right eyes (oculus dexter, OD) were fixed and then evaluated microscopically. […] Stained slides were evaluated via light microscopy. […] These tissues were scored for injury based upon a 0-4 scale, with 0 being normal, 1 being minimal, 2 being mild, 3 being moderate, and 4 being severe. […] Conjunctivae were scored for erosion and inflammation as well as presence or absence of goblet cells.

[2] = test system: mouse model of scopolamine-induced dry eye; assay: Phenol red thread tear test (PRTT) in scopolamine-induced dry eye mice; conditions: for Mean PRTT AUC: TID, OU, 5 μL/eye, AUC Day 7-21
Protocol: The study consisted of a total of 5 groups of female C57BL/6 mice, comprising 4 groups of 12 mice each and an additional group of 4 mice. Bilateral short-term dry eye was induced by a combination of scopolamine hydrobromide (Sigma-Aldrich Corp., St. Louis, Mo.) injection (subcutaneous (SC), four times daily, 0.5 mg/dose, Days 0-21) and by exposing mice to the drying environment of constant air draft. Starting on Day 1, mice of Groups 1-4 were treated three times daily (TID) for 21 days with bilateral topical ocular (oculus uterque; OU) administration (5 μL/eye/dose) of vehicle (0.9% sterile saline; negative control article); or the peptide of SEQ ID NO: 11 (0.06%, 0.25% and 0.6%). Mice of Group 5 were maintained as un-induced, (no dry eye) untreated controls. During the in-life (treatment) period, clinical observations were recorded once daily; slit-lamp examination (SLE) with corneal fluorescein staining, tear break-up time test (TBUT), and phenol red thread test (PRTT) were performed three times per week. Necropsies were performed on Day 22; eyes, eye lids, conjunctivae, and lacrimal glands were collected from both eyes of each animal. Tissues from the right eyes (oculus dexter, OD) were fixed and then evaluated microscopically. Tissues from the left eyes (oculus sinister; OS) were flash-frozen in liquid nitrogen and stored frozen at −80° C. for possible subsequent analyses. Tear production was measured three times a week in both eyes using PRTT test strips (Zone-Quick; Menicon, Nagoya, Japan). Prior to the first treatment of the day, a thread was applied to the lateral canthus of the conjunctival fornix of each eye for 30 seconds under slit-lamp biomicroscopy. Tear migration up the tread (i.e., the length of the wetted cotton thread) was measured using a millimeter scale.

[3] = test system: mouse model of scopolamine-induced dry eye; assay: Tear break-up time (TBUT) test in scopolamine-induced dry eye mice; conditions: for Mean Calculated TBUT AUC: TID, OU, 5 μL/eye, Days 1 to 21
Protocol: The study consisted of a total of 5 groups of female C57BL/6 mice, comprising 4 groups of 12 mice each and an additional group of 4 mice. Bilateral short-term dry eye was induced by a combination of scopolamine hydrobromide (Sigma-Aldrich Corp., St. Louis, Mo.) injection (subcutaneous (SC), four times daily, 0.5 mg/dose, Days 0-21) and by exposing mice to the drying environment of constant air draft. Starting on Day 1, mice of Groups 1-4 were treated three times daily (TID) for 21 days with bilateral topical ocular (oculus uterque; OU) administration (5 μL/eye/dose) of vehicle (0.9% sterile saline; negative control article); or the peptide of SEQ ID NO: 11 (0.06%, 0.25% and 0.6%). Mice of Group 5 were maintained as un-induced, (no dry eye) untreated controls. During the in-life (treatment) period, clinical observations were recorded once daily; slit-lamp examination (SLE) with corneal fluorescein staining, tear break-up time test (TBUT), and phenol red thread test (PRTT) were performed three times per week. Necropsies were performed on Day 22; eyes, eye lids, conjunctivae, and lacrimal glands were collected from both eyes of each animal. Tissues from the right eyes (oculus dexter, OD) were fixed and then evaluated microscopically. Tissues from the left eyes (oculus sinister; OS) were flash-frozen in liquid nitrogen and stored frozen at −80° C. for possible subsequent analyses. The TBUT test was conducted three times weekly by measuring the time elapsed in seconds between a complete blink after application of fluorescein to the cornea and the appearance of the first random dry spot in the tear film. […] At least ninety seconds later, corneal epithelial damage was graded using a slit-lamp with a cobalt blue filter after another drop of 0.1% fluorescein was reapplied to the cornea; the cornea then was scored per the Draize ocular scale.

In the case of “NH2-DQSRPVQPFLNLTTPRKPRPPRRRQRRKKRG-COOH (H-[dD][dQ][dS][dR][dP][dV][dQ][dP][dF][dL][dN][dL][dT][dT][dP][dR][dK][dP][dR][dP][dP][dR][dR][dR][dQ][dR][dR][dK][dK][dR]G-OH) [SEQ ID NO: 11]”, the “Corneal changes (histopathology) in comparison to the other treatment groups” value ([1]; Group 2, low dose (0.06%)) is reported as “slightly more severe”, the “Reducing/ameliorating the corneal changes (histopathology)” value ([1]; high dose (0.6%)) is reported as “most effective” and the “Dose dependence of PRTT” value ([2]; 0.06%, 0.25% and 0.6% (Groups 2, 3 and 4)) is reported as “generally dose-dependent increases in PRTT”. For the same substance, the “Mean PRTT AUC” value ([2]; Group 2: 0.06% (low dose)) was 39.96, the “Mean PRTT AUC” value ([2]; Group 3: 0.25% (mid dose)) was 42.79 and the “Mean PRTT AUC” value ([2]; Group 4: 0.6% (high dose)) was 43.17. The “Mean Calculated TBUT AUC” value ([3]; Group 2: 0.06% (low dose)) was 88.54, the “Mean Calculated TBUT AUC” value ([3]; Group 3: 0.25% (mid dose)) was 91.19 and the “Mean Calculated TBUT AUC” value ([3]; Group 4: 0.6% (high dose)) was 89.98. For the same substance, the “TBUT means compared with vehicle group” value ([3]; low, medium and high dose (Groups 2, 3 and 4)) was “above the vehicle group” and the “Dose dependence of TBUT” value ([3]; low, mid and high dose levels (Groups 2-4)) was “generally dose-dependent increases in TBUT”.
